Test results as given in the CombiSolv-Exp solvation set (Vermeire and Green 2021).

Assay: solvent given as SMILES

O=NN1CCCCC1
Conditions	solvation free energy, 298 K [kcal/mol]
in O	-6.34

Fc1ccccc1
Conditions	solvation free energy, 298 K [kcal/mol]
in C1CCOC1	-4.94
in C1COCCO1	-4.69
in CC(O)CO	-3.53
in CCCCCC	-4.15
in CCCCCCC	-4.13
in CCCCCCCCCC	-3.48
in CCCCCCCCCCCCCCCC	-3.81
in CN(C)C=O	-4.75
in COCCO	-4.4
in N#Cc1ccccc1	-4.53
in NC=O	-2.8
in O	-0.8
in OCCO	-2.91

CCCC(C)(O)CC (centres undefined)
Conditions	solvation free energy, 298 K [kcal/mol]
in CCCCCCCC	-5.4
in CCCCCCCCCC	-5.34

Clc1ccc(-c2cc(Cl)c(Cl)c(Cl)c2Cl)cc1
Conditions	solvation free energy, 298 K [kcal/mol]
in CCCCCCCCO	-12.8

c1ccoc1
Conditions	solvation free energy, 298 K [kcal/mol]
in CC(=O)N(C)C	-3.72
in CCCCN(C=O)CCCC	-3.27
in CNC(C)=O	-3.23
in O	-0.9

CCNc1nc(NCC)nc(SC)n1
Conditions	solvation free energy, 298 K [kcal/mol]
in O	-10.1

CCCC(=O)O
Conditions	solvation free energy, 298 K [kcal/mol]
in C=CCCCCCCC=C	-4.39
in C=CCCCCCCCCCCCCCC	-3.94
in O	-6.34

COC(=O)c1ccc(N)cc1
Conditions	solvation free energy, 298 K [kcal/mol]
in CCCO	-11.1

COCCO
Conditions	solvation free energy, 298 K [kcal/mol]
in C1CCOC1	-5.45
in COC(C)=O	-5.46
in O	-6.77

O=C1c2ccccc2C(=O)c2c(Cl)cccc21
Conditions	solvation free energy, 298 K [kcal/mol]
in C1CCOC1	-15
in CC(=O)N(C)C	-14.9
in CC(C)(C)O	-12.6
in CC(C)CC(C)(C)C	-12
in CC(C)CC(C)O	-12.7
in CC(C)CCO	-12.7
in CC(C)CO	-12.6
in CC(C)O	-12.6
in CCC(C)O	-12.7
in CCCC(C)CO	-12.8
in CCCC(C)O	-12.8
in CCCCCC	-12.2
in CCCCCCC	-12.3
in CCCCCCCC	-12.3
in CCCCCCCCCC	-12.4
in CCCCCCCCCCO	-13.1
in CCCCCCCCO	-13.1
in CCCCCCCO	-13.1
in CCCCCCO	-13.1
in CCCCCO	-12.9
in CCCCCOC(C)=O	-13.9
in CCCCO	-12.8
in CCCCOC(C)=O	-14
in CCCCOCCCC	-13.1
in CCCO	-12.8
in CCCOC(C)=O	-14.1
in CCOC(C)=O	-14.2
in CCOCC	-13.4
in CO	-12.7
in COC(C)(C)C	-13.4
in COC(C)=O	-14.3
in Fc1ccccc1	-14.6
in O	-8.23

O=C(C(=O)c1ccccc1)c1ccccc1
Conditions	solvation free energy, 298 K [kcal/mol]
in C1CCOC1	-12.6
in C1COCCO1	-12.5
in CC(=O)N(C)C	-12.6
in CC(C)(C)O	-10.8
in CC(C)=O	-12.5
in CC(C)CC(C)(C)C	-10.2
in CC(C)CC(C)O	-10.8
in CC(C)CCO	-10.8
in CC(C)CO	-10.8
in CC(C)O	-10.8
in CC(C)OC(C)C	-11.2
in CC(C)OCCO	-11.8
in CCC(C)(C)O	-11.1
in CCC(C)=O	-12.5
in CCC(C)O	-10.9
in CCCC(C)O	-10.9
in CCCCC(CC)CO	-10.8
in CCCCCC	-10.3
in CCCCCCC	-10.3
in CCCCCCCC	-10.3
in CCCCCCCCC=CCCCCCCCC(=O)OCC(COC(=O)CCCCCCCC=CCCCCCCCC)OC(=O)CCCCCCCC=CCCCCCCCC	-11.2
in CCCCCCCCCC	-10.3
in CCCCCCCCCCO	-10.9
in CCCCCCCCO	-10.8
in CCCCCCCO	-10.9
in CCCCCCO	-10.9
in CCCCCO	-11
in CCCCCl	-12.1
in CCCCO	-11
in CCCCOC(C)=O	-12.2
in CCCCOCCO	-11.8
in CCCO	-11.1
in CCCOCCO	-11.8
in CCO	-11.1
in CCOC(C)=O	-12.3
in CCOCC	-11.8
in CCOCCO	-11.9
in CO	-11.2
in COC(C)(C)C	-11.8
in COC(C)=O	-12.4
in COC(C)CCO	-11.8
in ClC(Cl)(Cl)Cl	-12
in ClCCCl	-12.7
in Clc1ccccc1	-12.4
in Fc1ccccc1	-12.4
in O	-6.64
in O=C1CCCCC1	-12.6
